From ChEMBL document CHEMBL1124848, “Monomethyl ether derivatives of 7,8-dihydroxy- and 8,9-dihydroxy-4-n-propyl-1,2,3,4,4a,5,6,10b-octahydrobenzo[f]quinolines as possible products of metabolism by catechol-O-methyltransferase” (1990)

Columns and labels:
[1] = Evaluated for its effect in the cat cardioaccelerator nerve assay at the dose of 300 ug/kg; assay type: functional; settings: Felis catus
[2] = Evaluated for its effect in the cat cardioaccelerator nerve assay at the dose of 0.0013 umol/kg; assay type: functional; settings: Felis catus

| SMILES | inhibition in vivo at 0.3 mg/kg [1] | inhibition in vivo at 0.0013 µmol/kg [2] |
| --- | --- | --- |
| CCCN1CCC[C@H]2c3cc(OC)c(O)cc3CC[C@@H]21 | 50% | – |
| CCCN1CCC[C@H]2c3cc(O)c(O)cc3CC[C@@H]21 | – | 50% |
